Test results from patent US12365695B2, “Fused ring heteroaryl compounds as RIPK1 inhibitors” (BiSiChem Co., Ltd., priority 2019, dated 2025).

Test system: HT-29 cells
Assay: Cell-based necroptosis assay for RIPK1 activity (cell viability, CCK-8)
Conditions: HT29 (human colon cancer), Z-VAD-FMK 20 μM, human TNFα 10 ng/ml, SM-164 100 nM, 24 h, read-out: Necroptosis inhibition (IC50)
Protocol: Human colon carcinoma cell HT-29 (KCLB 30038), BV2 mouse microglial cell (cell was a kind gift from Dr. Nak-Yun Sung, Senior researcher at Korea Prime Pharmacy CO., LTD.) and human microglial cell HMC3 (ATCC® CRL-3304™). HT-29 cell was grown in Roswell Park Memorial Institute (RPMI) 1640, BV2 cell was grown in Dulbecco's Modified Eagle's Medium (DMEM) and HMC3 cell was grown in Minimum Essential Media Eagle (MEM) supplemented with 10% fetal bovine serum and 1% mixture of penicillin and streptomycin (Gibco). Cells were maintained at 37° C. in a humidified 5% CO2 atmosphere.
To measure the activity of RIPK1 inhibitor in necroptotic cells, HT-29 cells were treated by control DMSO, human TNFα (Peprotech, Rocky Hill, USA), SM-164 (Biovision, California, USA) and a pan-caspase inhibitor Z-VAD-FMK (Invivogen, San Diego, USA). Cells were pretreated with Z-VAD-FMK 20 μM. After 30 min, human TNFα 10 ng/ml, SM-164 100 nM and RIPK1 Inhibitor (0.0001, 0.001, 0.01, 0.02, 0.05, 0.1, 1, 10 uM) were treated for 24 h. Cell viability was measured by Cell Counting Kit 8 (CCK-8) (Dong-in, Seoul, Korea).

| SMILES | IC50 |
| --- | --- |
| CN1C(=O)[C@@H](NC(=O)n2cc(Cc3ccccc3)cn2)COc2cc(F)ncc21 [Example 34, (S)-4-benzyl-N-(8-fluoro-5-methyl-4-oxo-2,3,4,5-tetrahydropyrido[4,3-b][1,4]oxazepin-3-yl)-1H-pyrazole-1-carboxamide] | < 10 nM |
| O=C1Nc2nccnc2CCC1NC(=O)n1cc(Cc2cccc(F)c2)cn1 (stereo not drawn) [Example 30, 4-(3-fluorobenzyl)-N-(6-oxo-6,7,8,9-tetrahydro-5H-pyrazino[2,3-b]azepin-7-yl)-1H-pyrazole-1-carboxamide] | > 100 nM |
| CN1C(=O)[C@@H](NC(=O)n2cc(Cc3cccc(F)c3)cn2)COc2ccnc(F)c21 [Example 33, (S)—N-(6-fluoro-5-methyl-4-oxo-2,3,4,5-tetrahydropyrido[4,3-b][1,4]oxazepin-3-yl)-4-(3-fluorobenzyl)-1H-pyrazole-1-carboxamide] | < 100 nM |
| CN1C(=O)[C@@H](NC(=O)n2cc(Cc3cccc(Cl)c3)cn2)COc2ccccc21 [Example 4, (S)-4-(3-chlorobenzyl)-N-(5-methyl-4-oxo-2,3,4,5-tetrahydrobenzo[b][1,4]oxazepin-3-yl)-1H-pyrazole-1-carboxamide] | < 10 nM |
| CN1C(=O)[C@@H](NC(=O)n2cc(Cc3ccccc3)cn2)COc2cc(F)cc(F)c21 [Example 16, (S)-4-benzyl-N-(6,8-difluoro-5-methyl-4-oxo-2,3,4,5-tetrahydrobenzo[b][1,4]oxazepin-3-yl)-1H-pyrazole-1-carboxamide] | < 10 nM |
| CN1C(=O)[C@@H](NC(=O)n2cc(Cc3ccc(F)cc3)cn2)COc2ccccc21 [Example 8, (S)-4-(4-fluorobenzyl)-N-(5-methyl-4-oxo-2,3,4,5-tetrahydrobenzo[b][1,4]oxazepin-3-yl)-1H-pyrazole-1-carboxamide] | < 100 nM |
